Data reported in publication PMC10892871 (Viruses, 2024).
Where two headings read alike, the source gives them in different places.

What was measured:
wild type B.1 SARS-CoV-2 = format: cell-based
in vitro = conditions: monkey
[1] = DAA, concentration causing 10% cytotoxicity

Row | Compound | IC50 (wild type B.1 SARS-CoV-2; read-out: IC50 vs. B.1 Mean ± SD) [µM] | IC90 (wild type B.1 SARS-CoV-2; read-out: IC90 vs. B.1 Mean ± SD) [µM] | CC10 Mean ± SD (VERO E6 cells; [1]) [µM] | CC50 (VERO E6 cells; read-out: CC50 Mean ± SD, DAA) [µM] | CC50 (in vitro) [µM] | IC90 vs. B.1 Mean ± SD (wild type B.1 SARS-CoV-2) [µg/mL] | CC10 Mean ± SD (VERO E6 cells; mAb) [µg/mL] | CC50 Mean ± SD (VERO E6 cells; mAb) [µg/mL]
1 | O=c1nc(NO)ccn1[C@@H]1O[C@H](CO)[C@@H](O)[C@H]1O [EIDD-1931, reference compound] | 2.4 ± 0.4 | 2.5 ± 0.1 | 3.1 ± 0.4 | 43.3 ± 6 | – | – | – | –
2 | CC(C)(C)[C@H](NC(=O)C(F)(F)F)C(=O)N1C[C@H]2[C@@H]([C@H]1C(=O)N[C@H](C#N)C[C@@H]1CCNC1=O)C2(C)C [NRM, nirmatrelvir, reference compound] | – | – | 2.9 ± 0.2 | – | 40.7 ± 4 | – | – | –
3 | CCC(CC)COC(=O)[C@H](C)N[P@](=O)(OC[C@H]1O[C@@](C#N)(c2ccc3c(N)ncnn23)[C@H](O)[C@@H]1O)Oc1ccccc1 [RDV, remdesivir, reference compound] | – | – | 4.2 ± 0.6 | – | 17.2 ± 0.2 | – | – | –
4 | bebtelovimab | – | – | – | – | – | 0.089 ± 0.009 | >0.06 | >0.06
5 | cilgavimab | – | – | – | – | – | 1.385 ± 0.862 | >0.36 | >0.36
6 | sotrovimab | – | – | – | – | – | 1.718 ± 0.594 | >2.4 | >2.4
7 | tixagevimab | – | – | – | – | – | 0.305 ± 0.071 | >0.36 | >0.36
